Measured values taken from BindingDB's records for doi:10.1021/jm00023a009 (University of Paris, 1995).
pIC50: −log10 of the molar value.

Assay: In vitro inhibition of EGF-stimulated DNA synthesis of ER 22 cells by following the incorporation of methyl-[3H]thymidine.

| Compound | pIC50 |
| --- | --- |
| CC(COC(=O)c1ccc(-c2cc(O)cc(C(C)(C)C)c2)cc1)CC(C)(C)C (stereo not given) | < 5.30 |
| COC(=O)c1ccc(-c2ccc(C(C)(C)C)cc2O)cc1 | < 5.30 |
| O=C(O)c1ccc(-c2cc(O)cc(-c3ccccc3)c2)cc1 | 5.00 |
| CC(COC(=O)c1ccc(-c2cc(O)cc(-c3ccccc3)c2)cc1)CC(C)(C)C (stereo not given) | < 5.30 |
| CC(COC(=O)c1ccc(-c2cccc(-c3ccccc3)c2O)cc1)CC(C)(C)C (stereo not given) | < 5.00 |
| CC(C)(C)c1cc(O)cc(-c2ccc(C(=O)O)cc2)c1 [3'-tert-Butyl-5'-hydroxy-biphenyl-4-carboxylic acid] | < 4.70 |

Second part, the molecule after the results:

| pIC50 | Compound |
| --- | --- |
| 5.10 | O=C(NCc1ccccc1)c1ccc(-c2cc(O)cc(-c3ccccc3)c2)cc1 |
| < 5.00 | COCOc1c(-c2ccccc2)cccc1-c1ccc(C(=O)OCC(C)CC(C)(C)C)cc1 (stereo not given) |
| 5.00 | COCOc1cc(-c2ccccc2)ccc1-c1ccc(C(=O)O)cc1 |
| < 5.30 | COCOc1cc(-c2ccccc2)ccc1-c1ccc(C(=O)OC)cc1 |
| < 5.30 | COC(=O)c1ccc(-c2cccc(-c3ccccc3)c2O)cc1 [2'-Hydroxy-[1,1';3',1'']terphenyl-4-carboxylic acid methyl ester] |
| 5.85 | O=C(NCc1ccccc1)c1ccc(-c2ccc(-c3ccccc3)cc2O)cc1 [2'-Hydroxy-[1,1';4',1'']terphenyl-4-carboxylic acid benzylamide] |
| 5.96 | COCOc1cc(-c2ccccc2)ccc1-c1ccc(C(=O)NCc2ccccc2)cc1 [2'-Methoxymethoxy-[1,1';4',1'']terphenyl-4-carboxylic acid benzylamide] |
| 5.27 | CC(C)(C)c1cc(O)cc(-c2ccc(C(=O)NCc3ccccc3)cc2)c1 [3'-tert-Butyl-5'-hydroxy-biphenyl-4-carboxylic acid benzylamide] |
| 5.00 | COCOc1cc(C(C)(C)C)ccc1-c1ccc(C(=O)OC)cc1 [4'-tert-Butyl-2'-methoxymethoxy-biphenyl-4-carboxylic acid methyl ester] |
